Reference: ChEMBL document CHEMBL5352470, “RS6077 induces mitotic arrest and selectively activates cell death in human cancer cell lines and in a lymphoma tumor in vivo” (Eur J Med Chem, 2023)
Active and inactive are the calls of the source. No cut-off for these calls is given here.

Assays:
MCF7 = assay: Antiproliferative activity against human MCF7 cells assessed as inhibition of cell growth measured for 48 hrs by MTT assay; format: functional, cell-based; conditions: MCF7, 48 h
[1] = Selectivity ratio of IC50 for human TERT-RPE1 cells to IC50 for human AHH-1 cells; format: functional
TERT-RPE1 [2] = assay: Induction of cell cycle arrest in human TERT-RPE1 cells assessed as accumulation of cells at G1 phase at 1000 nM incubated for 72 hrs by annexin V-FITC and PI staining based flow cytometry analysis; format: functional
TERT-RPE1 [3] = assay: Induction of cell cycle arrest in human TERT-RPE1 cells assessed as accumulation of cells at S phase at 100 nM incubated for 72 hrs by annexin V-FITC and PI staining based flow cytometry analysis; format: functional
TERT-RPE1 [4] = assay: Induction of cell cycle arrest in human TERT-RPE1 cells assessed as accumulation of cells at S phase at 2500 nM incubated for 72 hrs by annexin V-FITC and PI staining based flow cytometry analysis; format: functional
TERT-RPE1 [5] = assay: Induction of cell cycle arrest in human TERT-RPE1 cells assessed as accumulation of cells at G2/M phase at 100 nM incubated for 72 hrs by annexin V-FITC and PI staining based flow cytometry analysis; format: functional
HeLa [6] = assay: Induction of cell cycle arrest in human HeLa cells assessed as accumulation of cells at G1 phase at 2500 nM incubated for 72 hrs by annexin V-FITC and PI staining based flow cytometry analysis; format: functional
HeLa [7] = assay: Induction of cell cycle arrest in human HeLa cells assessed as accumulation of cells at S phase at 1000 nM incubated for 72 hrs by annexin V-FITC and PI staining based flow cytometry analysis; format: functional
HeLa [8] = assay: Induction of cell cycle arrest in human HeLa cells assessed as accumulation of cells at G2/M phase at 100 nM incubated for 72 hrs by annexin V-FITC and PI staining based flow cytometry analysis; format: functional
AHH-1 [9] = assay: Induction of cell cycle arrest in human AHH-1 cells assessed as accumulation of cells at G1 phase at 100 nM incubated for 72 hrs by annexin V-FITC and PI staining based flow cytometry analysis; format: functional
AHH-1 [10] = assay: Induction of cell cycle arrest in human AHH-1 cells assessed as accumulation of cells at S phase at 2500 nM incubated for 72 hrs by annexin V-FITC and PI staining based flow cytometry analysis; format: functional
AHH-1 [11] = assay: Induction of cell cycle arrest in human AHH-1 cells assessed as accumulation of cells at G2/M phase at 1000 nM incubated for 72 hrs by annexin V-FITC and PI staining based flow cytometry analysis; format: functional
AHH-1 [12] = assay: Induction of cell cycle arrest in human AHH-1 cells assessed as accumulation of cells at G2/M phase at 2500 nM incubated for 72 hrs by annexin V-FITC and PI staining based flow cytometry analysis; format: functional
TERT-RPE1 [13] = assay: Induction of apoptosis in human RPE-1 cells assessed as early apoptotic cells at 100 to 2500 nM measured after 72 hrs by annexin V-FITC and PI staining based flow cytometry analysis; format: functional, cell-based; conditions: dose 100-2500 nM
AHH-1 [14] = assay: Induction of apoptosis in human AHH-1 cells at 1000 to 2500 nM measured after 72 hrs by annexin V-FITC and PI staining based flow cytometry analysis; format: functional; conditions: dose 1000-2500 nM
TMD8 [15] = assay: Antiproliferative activity against human TMD8 cells assessed as inhibition of cell growth measured for 72 hrs by MTT assay; format: functional, cell-based; conditions: TMD8, 72 h
Maver1 = assay: Antiproliferative activity against human MAVER-1 cells assessed as inhibition of cell growth measured for 72 hrs by MTT assay; format: functional, cell-based; conditions: Maver1, 72 h
TMD8 [16] = assay: Antitumor activity against human TMD8 cells xenografted in NOD/SCID mouse assessed as reduction in tumor size at 100 mg/kg, po administered for 5 days; format: functional, organism-based; conditions: time 5.0 day
TMD8 [17] = assay: Antitumor activity against human TMD8 cells xenografted in NOD/SCID mouse assessed as reduction in tumor volume at 100 mg/kg, po administered for 5 days and measured on day 9; format: functional; conditions: time 9 day
[18] = Metabolic stability in human liver microsome assessed as intrinsic clearance measured upto 60 mins by LC-MS/MS analysis; format: ADME; conditions: liver microsomes, read-out: CLH
[19] = Metabolic stability in mouse liver microsome assessed as intrinsic clearance measured upto 60 mins by LC-MS/MS analysis; format: ADME; conditions: liver microsomes, read-out: CLH
[20] = Metabolic stability in mouse liver microsome assessed as half life measured upto 60 mins by LC-MS/MS analysis; format: ADME; conditions: liver microsomes
[21] = Toxicity in human T cells derived from human PBMC assessed as early apoptotic cells at 0.1 uM measured for 48 hrs by annexin V-FITC and PI staining based flow cytometry analysis (reference value: 6.75 to 8.22 %); conditions: t-cell
[22] = Toxicity in human T cells derived from human PBMC assessed as late apoptotic cells at 0.1 uM measured for 48 hrs by annexin V-FITC and PI staining based flow cytometry analysis (reference value: 13.5 to […] %); conditions: t-cell
[23] = Toxicity in human T cells derived from human PBMC assessed as viable cells at 1 uM measured for 48 hrs by annexin V-FITC and PI staining based flow cytometry analysis (reference value: 77.5 to 79.5 %); format: cell-based, T-cell; conditions: read-out: Activity
[24] = Toxicity in human T cells derived from human PBMC assessed as necrotic cells at 1 uM measured for 48 hrs by annexin V-FITC and PI staining based flow cytometry analysis (reference value: 0.31 to 0.48 %); conditions: t-cell
[25] = Toxicity in human T cells derived from human PBMC assessed as viable cells at 2.5 uM measured for 48 hrs by annexin V-FITC and PI staining based flow cytometry analysis (reference value: 77.5 to 79.5 %); format: cell-based, T-cell; conditions: read-out: Activity
[26] = Toxicity in human T cells derived from human PBMC assessed as late apoptotic cells at 2.5 uM measured for 48 hrs by annexin V-FITC and PI staining based flow cytometry analysis (reference value: 13.5 to […] %); conditions: t-cell
[27] = Toxicity in human T cells derived from human PBMC assessed as necrotic cells at 2.5 uM measured for 48 hrs by annexin V-FITC and PI staining based flow cytometry analysis (reference value: 0.31 to 0.48 %); conditions: t-cell
[28] = Toxicity in human T cells derived from human PBMC assessed as necrotic cells at 0.1 uM measured for 72 hrs by annexin V-FITC and PI staining based flow cytometry analysis (reference value: 0.48 to 0.56 %); conditions: t-cell
[29] = Toxicity in human T cells derived from human PBMC assessed as viable cells at 1 uM measured for 72 hrs by annexin V-FITC and PI staining based flow cytometry analysis (reference value: 66.5 to 77.5 %); format: cell-based, T-cell; conditions: read-out: Activity
[30] = Toxicity in human T cells derived from human PBMC assessed as early apoptotic cells at 1 uM measured for 72 hrs by annexin V-FITC and PI staining based flow cytometry analysis (reference value: 9.70 to […]); conditions: t-cell
[31] = Toxicity in human T cells derived from human PBMC assessed as late apoptotic cells at 1 uM measured for 72 hrs by annexin V-FITC and PI staining based flow cytometry analysis (reference value: 11.5 to 17.6%); conditions: t-cell

With `COc1cc(C(=O)c2ccn(-c3ncnc4[nH]ccc34)c2)cc(OC)c1OC` the IC50 (MCF7) was 38 nM, the “Ratio IC50” value [1] was 6.2 and the Activity (TERT-RPE1 [2]) was 13.3%. It also gave an Activity (TERT-RPE1 [3]) of 2.3%, an Activity (TERT-RPE1 [4]) of 7.3% and an Activity (TERT-RPE1 [5]) of 83%. For the same compound, the Activity (HeLa [6]) was 17%, the Activity (HeLa [7]) was 44.1% and the Activity (HeLa [8]) was 28.3%. The Activity (AHH-1 [9]) was 37.1%, the Activity (AHH-1 [10]) was 19.4% and the Activity (AHH-1 [11]) was 70.8%. The Activity (AHH-1 [12]) was 69.7%, the Activity (TERT-RPE1 [13]) was “Active” and the Activity (AHH-1 [14]) was 80%. The IC50 (TMD8 [15]) was 21.6 nM, the IC50 (Maver1) was 63.1 nM and the Activity (TMD8 [16]) was “Active”. The Activity (TMD8 [17]) was 402 mm3, the microsomal CLint [18] was 28 µL/min/mg and the microsomal CLint [19] was 96 µL/min/mg. It also gave a half-life [20] of 14.7 min, an Activity [21] of 5.88% and an Activity [22] of 13.3%. It also gave a viability at 48 h, 1 µM [23] of 74.9%, an Activity [24] of 0.24% and a viability at 48 h, 2.5 µM [25] of 72.7%. The Activity [26] was 12.2%, the Activity [27] was 0.41% and the Activity [28] was 0.48%. The viability at 72 h, 1 µM [29] was 64.7%, the Activity [30] was 11.6% and the Activity [31] was 12%.
